Assay results published in EPA's ToxValDB 9.5.
Where “and” joins values, the source holds several entries; their conditions need not be identical. Equal entries are not always repeated.

How the values were obtained:
Rattus norvegicus [1] = details: Hershberger, duration: 10 days, oral, gavage, Wistar
Rattus norvegicus [2] = details: for LD50 / LC50: acute
Oryctolagus sp. = details: for LD50: acute, dermal; for NOAEL: reproduction developmental, duration: 21 days, oral, gavage
Rattus norvegicus [3] = details: M/F
Rattus norvegicus [4] = details: oral
[5] = subchronic, duration: 90 days, oral, diet, Sprague-Dawley
[6] = chronic, inhalation, increased kidney, adrenal and pituitary weight
[7] = developmental, inhalation, Reduced maternal weight gain
[8] = subchronic, duration: 90 days, oral, gavage, Sprague-Dawley
[9] = short-term, duration: 28 days, gavage, M, Sprague-Dawley, Clinical Observation: Locomotor activity decrease, Salivation + Blood Chemistry: Ch E decrease
[10] = short-term, duration: 28 days, oral, diet, Sprague-Dawley
[11] = chronic, duration: 2 years, oral, diet, reduced body weight
[12] = reproduction developmental, duration: 39 days, oral, gavage, generation: F0
[13] = short-term, duration: 28 days, oral, gavage

For CCCC(c1cc(C(C)(C)C)c(O)cc1C)c1cc(C(C)(C)C)c(O)cc1C [4,4'-Butane-1,1-diylbis(2-tert-butyl-5-methylphenol)], the NOEL (Rattus norvegicus [1]; inactive + Negative + Negative + anti-androgenic + negative) was 125 mg/kg-day, the NOEL (Rattus norvegicus [1]; inactive + Negative + Negative + anti-androgenic + negative / effects on thyroid at 125 (initial increase in T4 at 5)) was 125 mg/kg-day and the LD50 (Rattus norvegicus [2]; oral, gavage, Sprague-Dawley) was > 7940 mg/kg. The NOAEL (Rattus norvegicus [2]; reproduction developmental, duration: 90 days, oral, diet, M, Sprague-Dawley) was 100 ppm, the LOAEL (Rattus norvegicus [2]; [5]) was 48 mg/kg-day and the NOAEL (Rattus norvegicus [2]; [5]) was 9.6 mg/kg-day. For the same compound, the LD50 (Oryctolagus sp.; New Zealand) was > 7940 mg/kg.

O=C(Cl)c1ccccc1 [Benzoyl chloride] was tested, and the LC50 (Rattus norvegicus [2]; inhalation) was 1.87 µg/mL, the LC50 (Rattus norvegicus [2]; inhalation, Wistar) was 1.45 µg/mL and > 1.98 µg/mL and > 2.34 µg/mL and the LD50 (Rattus norvegicus [2]; oral) was 2460 mg/kg and 1900 mg/kg. The LD50 (Rattus norvegicus [2]; oral, Spartan) was 2620 mg/kg, the LD50 (Rattus norvegicus [2]; oral, gavage, Wistar) was 2530 mg/kg and the LD50 (Oryctolagus sp.) was 790 mg/kg. The LD50 (Oryctolagus sp.; occlusive, New Zealand) was > 2000 mg/kg.

In the case of FC(F)Cl [Chlorodifluoromethane], the LOAEL (Rattus norvegicus [3]; [6]) is reported as 177000 mg/m3, the NOAEL (Rattus norvegicus [3]; [6]) is reported as 35400 mg/m3 and the LOAEL (Rattus norvegicus [3]; [7]) is reported as 177000 mg/m3. For the same compound, the NOAEL (Rattus norvegicus [3]; [7]) was 3540 mg/m3.

With CC(C)=CC1C(C(=O)OCc2coc(Cc3ccccc3)c2)C1(C)C (centres undefined) [Resmethrin] the LEL (Rattus norvegicus [3]; reproduction developmental, oral, reproductive toxicity) was 25 mg/kg-day.

In the case of C[CH2][Pb]([CH2]C)([CH2]C)[CH2]C [Tetraethyl lead], the LOAEL (Rattus norvegicus [3]; subchronic, oral, histopathology: liver and thymus) is reported as 0.0017 mg/kg-day.

CCCCCCCCC(=O)OCC(CC)(COC(=O)CCCCCCCC)COC(=O)CCCCCCCC [Trimethylolpropane trinonanoate] was tested, and the LD50 (Rattus norvegicus [2]; oral, gavage, Crl:CD(SD)) was > 2000 mg/kg, the LD50 (Rattus norvegicus [2]; oral, gavage, Sherman Wistar) was > 5000 mg/kg and the LD50 (Rattus norvegicus [2]; oral, gavage, Sprague-Dawley) was > 2000 mg/kg. The LD50 (Rattus norvegicus [2]; oral, gavage, Wistar) was > 2000 mg/kg and the LD50 (Oryctolagus sp.) was > 2000 mg/kg.

OC1CCCCC1 [Cyclohexanol] was tested, and the LC50 (Rattus norvegicus [2]; Inhalation, Sprague-Dawley) was > 3.63 µg/mL, the LD50 (Rattus norvegicus [2]; oral, gavage, Carworth Wistar) was 2060 mg/kg and the LD50 (Rattus norvegicus [2]; oral, gavage, Sprague-Dawley) was 1550 mg/kg. The NOAEL (Rattus norvegicus [2]; developmental, inhalation, Sprague-Dawley) was 614 mg/m3, the NOAEL (Rattus norvegicus [2]; reproduction developmental, duration: 10 weeks, inhalation, Sprague-Dawley, generation: F0) was 614 mg/m3 and the NOAEL (Rattus norvegicus [2]; reproduction developmental, duration: 10 weeks, inhalation, Sprague-Dawley, generation: F1) was 614 mg/m3. The NOAEL (Rattus norvegicus [2]; reproduction developmental, duration: 13 weeks, inhalation, Sprague-Dawley) was 614 mg/m3 and the LD50 (Oryctolagus sp.; New Zealand) was ≥ 501 mg/kg and ≤ 794 mg/kg.

In the case of O=S(=O)([O-])c1ccc(Nc2nc(Nc3ccc(/C=C/c4ccc(Nc5nc(Nc6ccc(S(=O)(=O)[O-])cc6)nc(N(CCO)CCO)n5)cc4S(=O)(=O)[O-])c(S(=O)(=O)[O-])c3)nc(N(CCO)CCO)n2)cc1.[Na+].[Na+].[Na+].[Na+] [C.I. Fluorescent Brightener 220], the LD50 (Rattus norvegicus [2]; oral, gavage) is reported as > 15000 mg/kg, the NOAEL (Rattus norvegicus [2]; chronic, duration: 104 weeks, oral, diet, F, Wistar) is reported as 780 mg/kg-day and the NOAEL (Rattus norvegicus [2]; chronic, duration: 104 weeks, oral, diet, M, Wistar) is reported as 780 mg/kg-day. For the same compound, the NOAEL (Rattus norvegicus [2]; reproduction developmental, duration: 9 months, oral, gavage, Sprague-Dawley, generation: F1) was 1000 mg/kg-day, the NOAEL (Rattus norvegicus [2]; reproduction developmental, duration: 9 months, oral, gavage, Sprague-Dawley, generation: F2) was 1000 mg/kg-day and the NOAEL (Rattus norvegicus [2]; reproduction developmental, duration: 13 days, oral, gavage, F, Sprague-Dawley) was 1000 mg/kg-day. For the same compound, the NOAEL (Rattus norvegicus [2]; reproduction developmental, duration: 13 days, oral, gavage, Sprague-Dawley, generation: F1) was 1000 mg/kg-day, the NOAEL (Rattus norvegicus [2]; reproduction developmental, oral, gavage, Sprague-Dawley, generation: F0) was 1000 mg/kg-day and the NOAEL (Rattus norvegicus [2]; reproduction developmental, oral, gavage, Sprague-Dawley, generation: F1) was 1000 mg/kg-day. It also gave an NOAEL (Rattus norvegicus [2]; subchronic, duration: 10 weeks, oral, gavage, F, Wistar) of 500 mg/kg-day, an NOAEL (Rattus norvegicus [2]; subchronic, duration: 10 weeks, oral, gavage, M, Wistar) of 500 mg/kg-day and an NOAEL (Oryctolagus sp.; F, New Zealand) of 100 mg/kg-day. The NOAEL (Oryctolagus sp.; New Zealand, generation: F1) was 300 mg/kg-day and 800 mg/kg-day.

With CN(C)NC(=O)CCC(=O)O [Daminozide] the NOEL (Rattus norvegicus [3]; reproduction developmental, oral, no effects) was 15 mg/kg-day.

With O=C(OCC1CCC2OC2C1)C1CCC2OC2C1 (centres undefined) [ECC] the LD50 (Rattus norvegicus [2]; oral, gavage, Sprague-Dawley) was 5000 mg/kg, the NOAEL (Rattus norvegicus [2]; developmental, duration: 14 days, oral, gavage, Sprague-Dawley) was 125 mg/kg-day and the NOAEL (Rattus norvegicus [2]; reproduction developmental, duration: 14 days, oral, gavage, F, Sprague-Dawley) was 25 mg/kg-day. For the same compound, the NOAEL (Rattus norvegicus [2]; reproduction developmental, duration: 90 days, oral, gavage, Sprague-Dawley, generation: F0) was ≥ 500 mg/kg-day, the LOAEL (Rattus norvegicus [2]; short-term, duration: 14 days, oral, gavage, Sprague-Dawley) was 100 mg/kg-day and the LOAEL (Rattus norvegicus [2]; [8]) was 50 mg/kg-day. For the same compound, the NOAEL (Rattus norvegicus [2]; [8]) was 5 mg/kg-day and the LD50 (Oryctolagus sp.; occlusive, New Zealand) was > 20 mg/kg.

With Cc1ccc(OP(=O)(Oc2ccc(C)cc2)Oc2ccc(C)cc2)cc1.Cc1cccc(OP(=O)(Oc2cccc(C)c2)Oc2cccc(C)c2)c1.Cc1ccccc1OP(=O)(Oc1ccccc1C)Oc1ccccc1C [Tris(methylphenyl) phosphate] the NOAEL (Rattus norvegicus [4]; [9]) was 200 mg/kg-day, the NOEL (Rattus norvegicus [4]; [9]) was < 40 mg/kg-day and the NOEL (Rattus norvegicus [4]; subchronic, duration: 13 weeks, diet, F, Fischer 344, Clinical Observation: Emaciation + Body Weight Changes: decrease + Food Consumption: decrease + Hematology: Hct decrease, RBC decrease, Hgb …) was 65 mg/kg-day. For the same compound, the NOEL (Rattus norvegicus [4]; subchronic, duration: 13 weeks, diet, M/F, Fischer 344, Clinical Observation: Emaciation + Body Weight Changes: decrease + Food Consumption: decrease + Hematology: Hct decrease, RBC decrease, Hgb …) was < 86.4 mg/kg-day, the NOEL (Rattus norvegicus [4]; subchronic, duration: 13 weeks, gavage, M/F, Fischer 344, Body Weight Changes: decrease + Hematology: Hct decrease, Hgb decrease, RBC decrease + Blood Chemistry: Ch E decrease + Absolute Organ …) was < 50 mg/kg-day and the LC50 (Rattus norvegicus [2]; Inhalation, Sprague-Dawley) was > 5.2 µg/mL. For the same compound, the LC50 (Rattus norvegicus [2]; inhalation, Wistar) was < 200 µg/mL, the LD50 (Rattus norvegicus [2]; oral, gavage, Wistar) was > 20000 mg/kg and the “LOAEL (% diet)” value (Rattus norvegicus [2]; [10]) was 0.5. The “NOAEL (% diet)” value (Rattus norvegicus [2]; [10]) was 0.1 and the LD50 (Oryctolagus sp.) was > 10000 mg/kg.

Work on CCOC(C)(C)C [Ethyl t-butyl ether] yielded an NOAEL (Rattus norvegicus [3]; chronic, duration: 2 years, inhalation, Fischer 344, Increased absolute kidney weight in female rats) of 6270 mg/m3.

In the case of COc1c(Cl)ccc(Cl)c1C(=O)[O-].[Na+] [Sodium dicamba], the LD50 (Rattus norvegicus [2]; oral, Sprague-Dawley) is reported as > 1000 mg/kg and the LD50 (Oryctolagus sp.; occlusive, New Zealand) is reported as > 400 mg/kg.

Work on COC(=O)c1ccccc1S(=O)(=O)NC(=O)Nc1nc(C)nc(OC)n1 [Metsulfuron-methyl] yielded an LEL (Rattus norvegicus [3]; [11]) of 250 mg/kg-day and an NOEL (Rattus norvegicus [3]; [11]) of 25 mg/kg-day.

CCCCCCCCCCCCOC(=O)CS(=O)(=O)[O-].[Na+] [Sodium 2-(dodecyloxy)-2-oxoethane-1-sulphonate] was tested, and the LD50 (Rattus norvegicus [2]; oral, Wistar) was 1000 mg/kg, the LD50 (Rattus norvegicus [2]; oral, gavage, Sprague-Dawley) was > 2000 mg/kg and the NOAEL (Rattus norvegicus [2]; reproduction developmental, duration: 39 days, oral, gavage) was 1000 mg/kg-day. It also gave an LOAEL (Rattus norvegicus [2]; [12]) of 1000 mg/kg-day, an NOAEL (Rattus norvegicus [2]; [12]) of 200 mg/kg-day and an LOAEL (Rattus norvegicus [2]; [13]) of 800 mg/kg-day. The NOAEL (Rattus norvegicus [2]; [13]) was 200 mg/kg-day and the LD50 (Oryctolagus sp.; occlusive, New Zealand) was > 2000 mg/kg.
